# Experimental data taken from patent US6087119A, “Method for determining the catalytic activity of factor IXa” (Roche Diagnostics GmbH, priority 1996, dated 2000).
# Where “and” joins values, the source holds several entries; their conditions need not be identical. Equal values may be shown once. Read-outs that look alike come from different tables or passages of the source.
# Experiments:
# native FIXa (human) = native FIXa (human) (Homo sapiens, UniProt P00740); settings: pH 7.4; for V/V0: MeSO2-D-HHT-Gly-Arg-pNA 1.02 mmol/l, 0.14 μmol/l native FIXa
# Procedure: The FIXa test was carried out with recombinantly produced native human FIXa as a sample and the peptide substrate MeSO2 -D-HHT-Gly-Arg-pNA (Pefachrom tPA, Pentapharm Ltd., Basel, Switzerland) or other chromogenic/fluorogenic substrates of the R-D-Xxx-Gly-Arg-pNA type (EP-B 0 034 122) in Tris-HCl buffer and the substances to be tested (alcohol, solvents and inhibitors). The reaction was started by adding FIXa.
# The test mixture was incubated at room temperature (25° C.) in a microtitre plate and the change in absorbance (ΔA/min) was measured at 405 nm using an ELISA reader. The activity and the kinetic constants were determined from the linear initial slope according to the Michaelis-Menten equation.
# (§1) 1.02 mmol/l MeSO2 -D-HHT-Gly-Arg-pNA
# 0.14 μmol/l native FIXa (human)
# (§2) 0-50% ethanol or ethylene glycol
# FIXa Test Mixture (Concentration in the Test)
# rFIXa (human) [1] = molecular target: T1, rFIXa (human) (Homo sapiens, UniProt P00740); settings: fluorogenic MeSO2-D-CHA-Gly-Arg-AMC 0.51 mmol/l, 0.08 μmol/l rFIXa, pH 7.4
# Text: The stimulation of human rFIXa by ethanol and ethylene glycol was examined using the peptide substrates MeSO2 -D-HHT-Gly-Arg-pNA (Pefachrom tPA, Pentapharm Ltd., Basel, Switzerland), MOC-D-Nle-Gly-Arg-pNA (Chromozym X, Boehringer Mannheim GmbH, Mannheim, Germany, Cat.No. 789763), MeSO2 -D-CHG-Gly-Arg-pNA (Pentapharm Ltd., Basel, Switzerland), MeSO2 -D-CHA-Gly-Arg-pNA (Pentapharm Ltd., Basel, Switzerland) and MeSO2 -D-CHA-Gly-Arg-AMC (Pentapharm Ltd., Basel, Switzerland).
# Test Mixture Fluorogenic (Concentration in the Test)
# 0.51 mmol/l MeSO2 -D-CHA-Gly-Arg-AMC
# 0.08 μmol/l rFIXa (human)
# Target sequence in this assay (P00740 227-461): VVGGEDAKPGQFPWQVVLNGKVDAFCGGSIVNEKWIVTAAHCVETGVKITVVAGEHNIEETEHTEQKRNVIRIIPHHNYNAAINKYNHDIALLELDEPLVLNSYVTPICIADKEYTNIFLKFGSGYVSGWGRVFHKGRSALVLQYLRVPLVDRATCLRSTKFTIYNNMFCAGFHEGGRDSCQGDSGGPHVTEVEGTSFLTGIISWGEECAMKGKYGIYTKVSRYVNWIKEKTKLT
# Target sequence in this assay (P00740 131-226): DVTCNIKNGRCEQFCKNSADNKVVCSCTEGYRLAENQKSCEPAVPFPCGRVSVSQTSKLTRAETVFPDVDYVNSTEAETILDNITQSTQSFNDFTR
# [2] = molecular target: plasma kallikrein (human) (Homo sapiens, UniProt P03952); settings: 10-20% ethanol
# Text: Plasma Kallikrein Test Mixture (Concentration in the Test)
# (§3) 42 mmol/l Tris-HCl, pH 7.4
# as §1
# 0.0176 U/ml plasma kallikrein (human)
# as §2
# FXIIa (human) = FXIIa (human) (Homo sapiens, UniProt P00748); settings: FXIIa 0.0045 U/ml, MeSO2-D-HHT-Gly-Arg-pNA 1.02 mmol/l, pH 7.4
# Text: FXIIa Test Mixture (Concentration in the Test)
# as §3, §1
# 0.0045 U/ml FXIIa (human)
# as §2
# FXIa (human) = FXIa (human) (Homo sapiens, UniProt P03951); settings: FXIa 0.0012 μmol/l, MeSO2-D-HHT-Gly-Arg-pNA 1.02 mmol/l, pH 7.4
# Text: FXIa Test Mixture (Concentration in the Test)
# as §3, §1
# 0.0012 μmol/l FXIa (human)
# as §2
# FXa (bovine) = FXa (bovine) (Bos taurus, UniProt P00743); settings: FXa 0.088 μmol/l, MeSO2-D-HHT-Gly-Arg-pNA 1.02 mmol/l, pH 7.4
# Text: FXa Test Mixture (concentration in the Test)
# as §3, §1
# 0.088 μmol/l FXa (bovine)
# as §2
# thrombin (bovine) = thrombin (bovine) (Bos taurus, UniProt P00735); settings: thrombin 0.045 μmol/l, MeSO2-D-HHT-Gly-Arg-pNA 1.02 mmol/l, pH 7.4
# Text: Thrombin Test Mixture (Concentration in the Test)
# as §3, §1
# 0.045 μmol/l thrombin (bovine)
# as §2
# rFIXa (human) [3] = molecular target: T1, rFIXa (human); assay: Influence of alcohols and organic solvents on the activity of rFIXa, chromogenic peptide substrates; type: biochemical; set-up: coding for the FIX protease domain from amino acid position 181 to 415; Met (ATG start codon) (N); made in house; settings: for V/V0: pH 7.4
# Procedure: The reaction was started by adding FIXa.
# MeSO2 -D-HHT-Gly-Arg-pNA→MeSO2 -D-HHT-Gly-Arg+pNA measurement signal: pNA
# 0.48 μmol/l rFIXa (human)
# 0-50% (alcohol or organic solvent)
# The ratio V/V0 was calculated to illustrate the stimulation of the catalytic activity of rFIXa.
# V0, reaction rate without additives
# V, reaction rate in the presence of additives
# Test Mixture Chromogenic (Concentration in the Test)
# Target sequence in this assay (P00740 227-461 limits assumed): as the sequence (P00740 227-461) above
# Target sequence in this assay (P00740 131-226 partner limits assumed): as the sequence (P00740 131-226) above
# FXa (bovine), sequence (P00743 234-492 limits assumed): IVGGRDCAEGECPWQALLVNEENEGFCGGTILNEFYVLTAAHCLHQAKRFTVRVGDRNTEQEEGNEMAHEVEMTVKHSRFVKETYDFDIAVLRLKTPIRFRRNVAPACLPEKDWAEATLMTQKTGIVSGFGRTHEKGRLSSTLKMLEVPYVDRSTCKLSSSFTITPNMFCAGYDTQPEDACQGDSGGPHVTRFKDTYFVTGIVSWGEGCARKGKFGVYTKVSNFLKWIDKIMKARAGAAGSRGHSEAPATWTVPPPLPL
# FXa (bovine), sequence (P00743 41-180 partner limits assumed): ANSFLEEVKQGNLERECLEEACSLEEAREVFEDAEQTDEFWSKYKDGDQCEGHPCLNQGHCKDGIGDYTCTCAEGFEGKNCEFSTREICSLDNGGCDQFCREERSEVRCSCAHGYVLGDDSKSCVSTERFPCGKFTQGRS
# native FIXa (human), sequence (P00740 227-461 limits assumed): as the sequence (P00740 227-461) above
# native FIXa (human), sequence (P00740 47-191 partner limits assumed): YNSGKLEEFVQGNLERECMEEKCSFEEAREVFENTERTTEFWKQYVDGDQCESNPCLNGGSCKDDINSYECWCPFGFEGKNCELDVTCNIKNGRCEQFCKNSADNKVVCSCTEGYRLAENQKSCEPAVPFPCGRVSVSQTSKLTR
# FXIa (human), sequence (P03951 388-625 limits assumed): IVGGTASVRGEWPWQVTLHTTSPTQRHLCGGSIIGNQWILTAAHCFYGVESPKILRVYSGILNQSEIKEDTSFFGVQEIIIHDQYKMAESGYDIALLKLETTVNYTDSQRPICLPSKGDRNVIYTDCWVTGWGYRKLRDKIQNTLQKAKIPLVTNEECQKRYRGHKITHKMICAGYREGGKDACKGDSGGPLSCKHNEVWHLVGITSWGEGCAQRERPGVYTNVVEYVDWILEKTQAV
# FXIa (human), sequence (P03951 19-387 partner limits assumed): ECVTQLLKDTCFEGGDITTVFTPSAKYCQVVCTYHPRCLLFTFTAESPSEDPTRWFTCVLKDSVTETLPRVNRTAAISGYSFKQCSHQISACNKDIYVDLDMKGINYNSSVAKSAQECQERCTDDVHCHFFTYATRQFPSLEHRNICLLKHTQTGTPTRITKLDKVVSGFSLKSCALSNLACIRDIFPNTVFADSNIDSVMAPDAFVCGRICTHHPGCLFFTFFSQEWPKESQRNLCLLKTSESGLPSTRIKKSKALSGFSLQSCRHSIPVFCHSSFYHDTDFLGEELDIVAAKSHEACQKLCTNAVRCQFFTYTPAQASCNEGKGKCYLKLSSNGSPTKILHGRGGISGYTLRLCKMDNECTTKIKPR
# FXIIa (human), sequence (P00748 373-615 limits assumed, other chains not shown): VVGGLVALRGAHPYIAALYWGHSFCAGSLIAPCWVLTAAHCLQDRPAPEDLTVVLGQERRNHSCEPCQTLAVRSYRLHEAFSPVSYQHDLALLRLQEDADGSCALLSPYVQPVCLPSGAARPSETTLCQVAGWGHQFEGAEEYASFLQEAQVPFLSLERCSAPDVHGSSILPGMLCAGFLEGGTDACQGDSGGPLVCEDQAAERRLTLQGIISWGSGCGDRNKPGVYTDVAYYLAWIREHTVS
# plasma kallikrein (human), sequence (P03952 391-638 limits assumed): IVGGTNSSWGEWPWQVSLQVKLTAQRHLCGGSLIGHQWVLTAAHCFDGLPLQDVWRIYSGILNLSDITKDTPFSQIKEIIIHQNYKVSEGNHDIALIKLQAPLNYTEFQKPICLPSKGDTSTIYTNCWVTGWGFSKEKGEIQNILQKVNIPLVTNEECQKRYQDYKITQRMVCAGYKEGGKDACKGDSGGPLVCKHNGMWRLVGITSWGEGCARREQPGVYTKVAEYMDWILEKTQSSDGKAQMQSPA
# plasma kallikrein (human), sequence (P03952 20-390 partner limits assumed): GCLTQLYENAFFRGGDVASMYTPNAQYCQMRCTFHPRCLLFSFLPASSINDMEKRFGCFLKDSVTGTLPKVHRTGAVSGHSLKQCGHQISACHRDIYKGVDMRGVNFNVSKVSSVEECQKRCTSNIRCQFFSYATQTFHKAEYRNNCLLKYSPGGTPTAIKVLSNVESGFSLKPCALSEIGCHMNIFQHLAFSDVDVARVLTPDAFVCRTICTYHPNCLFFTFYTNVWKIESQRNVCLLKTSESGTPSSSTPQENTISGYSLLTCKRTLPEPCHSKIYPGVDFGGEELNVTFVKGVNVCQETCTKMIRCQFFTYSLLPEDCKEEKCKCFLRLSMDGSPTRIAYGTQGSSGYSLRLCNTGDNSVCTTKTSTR
compound,measurement,setting,value
CCO [Ethanol],"activation among plasma kallikrein, FXIIa, FXIa, FIXa, FXa and thrombin (in words)","native FIXa (human); 0-50% alcohol, MeSO2-D-HHT-Gly-Arg-pNA",only FIXa is activated
same,V/V0,native FIXa (human); 8% additive,3.40
same,V/V0,native FIXa (human); 16% additive,5.46
same,V/V0,native FIXa (human); 25% additive,5.96
same,V/V0,native FIXa (human); 33% additive,4.82
same,V/V0,native FIXa (human); 41% additive,1.69
same,V/V0,native FIXa (human); 50% additive,1.17
same,V/V0,rFIXa (human) [1]; 8% additive,2.09
same,V/V0,rFIXa (human) [1]; 16% additive,2.50
same,V/V0,rFIXa (human) [1]; 33% additive,1.01
same,V/V0,rFIXa (human) [1]; 41% additive,0.70
same,V/V0,rFIXa (human) [1]; 50% additive,0.58
same,activation of plasma kallikrein (in words),[2],slight activation
same,V/V0,FXIIa (human); 8% alcohol,0.904
same,V/V0,FXIIa (human); 16% alcohol,0.579
same,V/V0,FXIIa (human); 25% alcohol,0.187
same,V/V0,FXIIa (human); 33% alcohol,0.051
same,V/V0,FXIIa (human); 41% alcohol,0.009
same,V/V0,FXIIa (human); 50% alcohol,0
same,V/V0,FXIa (human); 8% alcohol,1.08
same,V/V0,FXIa (human); 16% alcohol,0.845
same,V/V0,FXIa (human); 25% alcohol,0.657
same,V/V0,FXIa (human); 33% alcohol,0.469
same,V/V0,FXIa (human); 41% alcohol,0.353
same,V/V0,FXIa (human); 50% alcohol,0.258
same,V/V0,FXa (bovine); 8% alcohol,0.899
same,V/V0,FXa (bovine); 16% alcohol,0.752
same,V/V0,FXa (bovine); 25% alcohol,0.510
same,V/V0,FXa (bovine); 41% alcohol,0.203
same,V/V0,FXa (bovine); 50% alcohol,0.086
same,V/V0,thrombin (bovine); 8% alcohol,0.846
same,V/V0,thrombin (bovine); 16% alcohol,0.685
same,V/V0,thrombin (bovine); 25% alcohol,0.507
same,V/V0,thrombin (bovine); 33% alcohol,0.343
same,V/V0,thrombin (bovine); 41% alcohol,0.184
same,V/V0,thrombin (bovine); 50% alcohol,0.087
same,V/V0,"rFIXa (human) [3]; 8% additive, MOC-D-Nle-Gly-Arg-pNA 0.82 mmol/l, 0.48 μmol/l rFIXa",3.63
same,V/V0,"rFIXa (human) [3]; 8% additive, MeSO2-D-CHA-Gly-Arg-pNA 1.02 mmol/l, 0.48 μmol/l rFIXa",3.30
same,V/V0,"rFIXa (human) [3]; 8% additive, MeSO2-D-CHG-Gly-Arg-pNA 1.02 mmol/l, […] rFIXa",3.33
same,V/V0,"rFIXa (human) [3]; 8% additive, MeSO2-D-HHT-Gly-Arg-pNA 1.02 mmol/l, 0.48 μmol/l rFIXa",2.99
same,V/V0,"rFIXa (human) [3]; 16% additive, MOC-D-Nle-Gly-Arg-pNA 0.82 mmol/l, 0.48 μmol/l rFIXa",7.28
same,V/V0,"rFIXa (human) [3]; 16% additive, MeSO2-D-CHA-Gly-Arg-pNA 1.02 mmol/l, 0.48 μmol/l rFIXa",5.40
same,V/V0,"rFIXa (human) [3]; 16% additive, MeSO2-D-CHG-Gly-Arg-pNA 1.02 mmol/l, […] rFIXa",6.02
same,V/V0,"rFIXa (human) [3]; 16% additive, MeSO2-D-HHT-Gly-Arg-pNA 1.02 mmol/l, 0.48 μmol/l rFIXa",5.52
same,V/V0,"rFIXa (human) [3]; 25% additive, MOC-D-Nle-Gly-Arg-pNA 0.82 mmol/l, 0.48 μmol/l rFIXa",9.95
same,V/V0,"rFIXa (human) [3]; 25% additive, MeSO2-D-CHA-Gly-Arg-pNA 1.02 mmol/l, 0.48 μmol/l rFIXa",5.38
same,V/V0,"rFIXa (human) [3]; 25% additive, MeSO2-D-CHG-Gly-Arg-pNA 1.02 mmol/l, […] rFIXa",6.16
same,V/V0,"rFIXa (human) [3]; 25% additive, MeSO2-D-HHT-Gly-Arg-pNA 1.02 mmol/l, 0.48 μmol/l rFIXa",5.57
same,V/V0,"rFIXa (human) [3]; 33% additive, MOC-D-Nle-Gly-Arg-pNA 0.82 mmol/l, 0.48 μmol/l rFIXa",7.51
same,V/V0,"rFIXa (human) [3]; 33% additive, MeSO2-D-CHA-Gly-Arg-pNA 1.02 mmol/l, 0.48 μmol/l rFIXa",4.30
same,V/V0,"rFIXa (human) [3]; 33% additive, MeSO2-D-CHG-Gly-Arg-pNA 1.02 mmol/l, […] rFIXa",4.50
same,V/V0,"rFIXa (human) [3]; 33% additive, MeSO2-D-HHT-Gly-Arg-pNA 1.02 mmol/l, 0.48 μmol/l rFIXa",3.35
same,V/V0,"rFIXa (human) [3]; 41% additive, MOC-D-Nle-Gly-Arg-pNA 0.82 mmol/l, 0.48 μmol/l rFIXa",3.15
same,V/V0,"rFIXa (human) [3]; 50% additive, MeSO2-D-CHA-Gly-Arg-pNA 1.02 mmol/l, 0.48 μmol/l rFIXa",0.89
same,V/V0,"rFIXa (human) [3]; 50% additive, MeSO2-D-CHG-Gly-Arg-pNA 1.02 mmol/l, […] rFIXa",0.87
same,V/V0,"rFIXa (human) [3]; 50% additive, MeSO2-D-HHT-Gly-Arg-pNA 1.02 mmol/l, 0.48 μmol/l rFIXa",0.606
same,V/V0,"rFIXa (human) [3]; 50% additive, MeSO2-D-HHT-Gly-Arg-pNA 1.02 mmol/l, 0.48 μmol/l rFIXa, listed as ethanol",0.61 and 0.60
same,stimulation of the activity of rFIXa,rFIXa (human) [3]; concentration range of 15-40%,5-15 fold
